In patent US11548870B2, “Compounds useful as inhibitors of helios protein” (Bristol-Myers Squibb Company, priority 2019, dated 2023):
Where “and” joins values, the source holds several entries; their conditions need not be identical. Identical values can stand only once. Like-named read-outs stand apart in the source and are kept apart here.

How the values were obtained:
Ikaros = target: T1, Ikaros (Homo sapiens, UniProt Q13422); assay: Helios Cellular Degradation Assay, Ikaros readout (flow cytometry, Ikaros-Alexa488 antibody staining, 72 h); format: cell-based; settings: Jurkat cells, 72 h incubation, flow cytometry; for Dmax: Jurkat, read-out: Ikaros Dmax
T1 construct: fluorescently labelled antibodies against Helios and Ikaros; endogenous in cells; host or cells: Jurkat cells
T1 sequence (Q96SW2 whole entry partner): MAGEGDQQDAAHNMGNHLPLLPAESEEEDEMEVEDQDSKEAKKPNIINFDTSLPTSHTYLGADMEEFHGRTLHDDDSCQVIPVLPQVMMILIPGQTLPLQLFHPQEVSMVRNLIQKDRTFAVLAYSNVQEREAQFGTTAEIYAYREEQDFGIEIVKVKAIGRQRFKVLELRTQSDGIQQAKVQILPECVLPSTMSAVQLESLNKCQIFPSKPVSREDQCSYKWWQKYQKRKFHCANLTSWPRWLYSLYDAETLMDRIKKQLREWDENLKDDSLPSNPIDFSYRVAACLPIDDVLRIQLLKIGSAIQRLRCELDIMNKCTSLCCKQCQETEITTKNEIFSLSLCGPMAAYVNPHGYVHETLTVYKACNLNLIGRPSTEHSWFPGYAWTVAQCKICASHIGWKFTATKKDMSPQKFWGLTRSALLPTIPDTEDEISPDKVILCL
T1 sequence (Q16531 whole entry partner): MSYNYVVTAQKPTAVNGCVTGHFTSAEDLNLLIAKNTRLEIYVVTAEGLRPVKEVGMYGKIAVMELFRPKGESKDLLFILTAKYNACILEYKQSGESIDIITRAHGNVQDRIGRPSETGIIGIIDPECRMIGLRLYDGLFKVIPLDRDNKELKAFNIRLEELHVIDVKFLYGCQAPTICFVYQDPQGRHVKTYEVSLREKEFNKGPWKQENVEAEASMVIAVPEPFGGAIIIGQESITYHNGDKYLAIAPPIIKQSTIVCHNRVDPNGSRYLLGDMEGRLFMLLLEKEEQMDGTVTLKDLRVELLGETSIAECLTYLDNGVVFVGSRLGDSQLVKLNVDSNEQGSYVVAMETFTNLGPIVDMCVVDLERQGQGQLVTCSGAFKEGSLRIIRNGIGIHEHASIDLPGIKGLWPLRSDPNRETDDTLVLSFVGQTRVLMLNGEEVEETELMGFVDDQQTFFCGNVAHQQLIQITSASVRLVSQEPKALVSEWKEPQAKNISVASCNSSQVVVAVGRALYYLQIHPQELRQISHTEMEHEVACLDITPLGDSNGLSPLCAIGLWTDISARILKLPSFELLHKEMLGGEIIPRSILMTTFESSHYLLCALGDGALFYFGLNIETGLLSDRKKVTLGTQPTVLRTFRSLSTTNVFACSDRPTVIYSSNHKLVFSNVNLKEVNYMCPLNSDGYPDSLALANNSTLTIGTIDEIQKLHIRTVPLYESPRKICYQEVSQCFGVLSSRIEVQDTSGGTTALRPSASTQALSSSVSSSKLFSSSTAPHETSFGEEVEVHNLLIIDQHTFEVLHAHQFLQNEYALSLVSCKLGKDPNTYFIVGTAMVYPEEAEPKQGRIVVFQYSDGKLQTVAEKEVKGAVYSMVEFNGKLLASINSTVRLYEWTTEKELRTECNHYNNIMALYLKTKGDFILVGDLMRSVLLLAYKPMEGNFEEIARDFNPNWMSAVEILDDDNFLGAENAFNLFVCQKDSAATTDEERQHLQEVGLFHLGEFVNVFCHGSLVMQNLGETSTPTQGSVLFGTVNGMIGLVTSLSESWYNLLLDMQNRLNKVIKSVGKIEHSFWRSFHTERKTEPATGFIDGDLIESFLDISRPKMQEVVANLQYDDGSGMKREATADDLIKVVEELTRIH
T1 sequence (Q13422 whole entry): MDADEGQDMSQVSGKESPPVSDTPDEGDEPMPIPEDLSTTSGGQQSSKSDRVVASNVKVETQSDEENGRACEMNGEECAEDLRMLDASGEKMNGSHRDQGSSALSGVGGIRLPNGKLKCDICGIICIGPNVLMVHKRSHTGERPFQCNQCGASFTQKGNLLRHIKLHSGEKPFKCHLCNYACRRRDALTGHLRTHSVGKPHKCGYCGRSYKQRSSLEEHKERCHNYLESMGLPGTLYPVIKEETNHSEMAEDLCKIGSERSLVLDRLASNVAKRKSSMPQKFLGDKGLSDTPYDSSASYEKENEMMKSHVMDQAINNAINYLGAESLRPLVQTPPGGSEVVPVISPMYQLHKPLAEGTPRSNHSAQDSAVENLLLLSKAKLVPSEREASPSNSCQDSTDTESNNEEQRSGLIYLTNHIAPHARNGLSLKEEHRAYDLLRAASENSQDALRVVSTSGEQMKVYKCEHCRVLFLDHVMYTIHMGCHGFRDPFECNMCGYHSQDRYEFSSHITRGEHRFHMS
Method: (§1) Helios Cellular Degradation Assay
(§2) Jurkat cells were plated at 80,000 cells/well in 40 μL RPMI+10% FBS in a 384 well cell culture plate prior to using acoustic dispensing technology for adding compound of interest. Cell cultures were incubated for 72 h at 37° C. and 5% CO2. In order to facilitate analysis, cell cultures were spun down at 200 rpm for 5 min and the supernatant was discarded. After shaking the plate to dislodge the cell pellet, cells were resuspended in 50 μL of Fixation Buffer (eBioScience FoxP3 buffer set 0000) for 60 min at room temperature. After centrifuging and discarding the supernatant, cells were permeabilized with 50 μL of Permeabilization buffer (eBioScience FoxP3 buffer set 00-5523-00) for 10 min at room temperature. Following permeabilization, cells were spun down and the supernatant was replaced with 20 μL fluorescently labelled antibodies against Helios and Ikaros or corresponding Isotype controls in 1× Permeabilization buffer (Ikaros-Alexa488 [Biolegend, Cat #368408, 1:50], Helios-PE [CST, Cat #29360, 1:50]) and staining reactions were incubated for 1 h at room temperature; protected from light. Subsequently, 30 μL of 1× Permeabilization buffer was added prior to centrifuging the cells and discarding the supernatant. Stained cells were resuspended in 25 μL of flow cytometry staining buffer (PBS+0.2% BSA) and analyzed using an Intellicyt Ique Plus flow cytometer.
as §2, with “00-5523-00)” for “0000)”

Helios = target: T2, Helios (Homo sapiens, UniProt Q96SW2+Q9UKS7); assay: Helios Cellular Degradation Assay (flow cytometry, Helios-PE antibody staining, 72 h); format: cell-based; settings: for Dmax: Jurkat, read-out: Helios Dmax
T2 construct: fluorescently labelled antibodies against Helios and Ikaros; endogenous in cells; host or cells: Jurkat cells
T2 sequence (Q9UKS7 whole entry): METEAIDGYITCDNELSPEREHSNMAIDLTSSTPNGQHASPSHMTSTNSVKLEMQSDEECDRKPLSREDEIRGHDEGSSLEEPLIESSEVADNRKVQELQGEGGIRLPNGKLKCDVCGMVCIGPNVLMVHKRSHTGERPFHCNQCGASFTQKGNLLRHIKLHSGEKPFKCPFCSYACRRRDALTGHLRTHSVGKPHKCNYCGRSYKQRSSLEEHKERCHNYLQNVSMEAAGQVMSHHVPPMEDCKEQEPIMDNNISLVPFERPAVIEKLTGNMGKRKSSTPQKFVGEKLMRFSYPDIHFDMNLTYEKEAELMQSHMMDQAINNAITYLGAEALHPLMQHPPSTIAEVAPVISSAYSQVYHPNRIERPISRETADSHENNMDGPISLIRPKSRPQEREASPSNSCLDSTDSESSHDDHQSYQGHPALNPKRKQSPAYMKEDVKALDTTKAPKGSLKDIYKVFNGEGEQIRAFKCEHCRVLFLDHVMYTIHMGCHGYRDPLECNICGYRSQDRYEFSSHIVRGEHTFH
T2 sequence (Q96SW2 whole entry): as the sequence (Q96SW2 whole entry partner) above
T2 sequence (Q16531 whole entry partner): as the sequence (Q16531 whole entry partner) above
Method: as §1, §2
as §2, with “00-5523-00)” for “0000)”

[1] = Jurkat cells, 72 h incubation, flow cytometry

3-(1-oxo-5-(4-((4-(pyridin-2-yl)piperidin-1-yl)methyl)pyridin-2-yl)isoindolin-2-yl)piperidine-2,6-dione [Example 15]
DC50 (Ikaros): > 10000 nM | Ikaros Dmax (Ikaros): 8% | DC50 (Helios; [1]): > 10000 nM | Helios Dmax (Helios; [1]): 5%

3-(1-oxo-5-(4-((4-(pyrimidin-2-yl) piperidin-1-yl)methyl)pyridin-2-yl)isoindolin-2-yl)piperidine-2,6-dione [Example 18]
DC50 (Ikaros): > 10000 nM | Ikaros Dmax (Ikaros): 19% | DC50 (Helios; [1]): > 10000 nM | Helios Dmax (Helios; [1]): 21%

3-(5-(4-(((cyclobutylmethyl)(methyl)amino)methyl)pyridin-2-yl)-1-oxoisoindolin-2-yl)piperidine-2,6-dione [Example 178]
DC50 (Ikaros): > 10000 nM | Ikaros Dmax (Ikaros): 15% | DC50 (Helios; [1]): 131 nM | Helios Dmax (Helios; [1]): 82%

O=C1CCC(N2Cc3cc(-c4cc(CN5CCC5c5ccccc5)ccn4)ccc3C2=O)C(=O)N1 (single isomer, unassigned) [Example 204, 3-(1-oxo-5-(4-((2-phenylazetidin-1-yl)methyl)pyridin-2-yl)isoindolin-2-yl)piperidine-2,6-dione]
DC50 (Ikaros): > 10000 nM | DC50 (Helios; [1]): > 10000 nM | Helios Dmax (Helios; [1]): 2.42% and 2.4%

O=C1CCC(N2Cc3cc(-c4cc(CN5CCC5c5ccccc5)ccn4)ccc3C2=O)C(=O)N1 (single isomer, unassigned) [Example 205, 3-(1-oxo-5-(4-((2-phenylazetidin-1-yl)methyl)pyridin-2-yl)isoindolin-2-yl)piperidine-2,6-dione]
DC50 (Ikaros): > 10000 nM | Ikaros Dmax (Ikaros): 8.15% and 6% | DC50 (Helios; [1]): > 10000 nM

CN(C)Cc1ccnc(-c2ccc3c(c2)CN(C2CCC(=O)NC2=O)C3=O)c1 (centres unmarked) [Example 1, 3-(5-{4-[(Dimethylamino)methyl]pyridin-2-yl}-1-oxo-2,3-dihydro-1H-isoindol-2-yl) piperidine-2,6-dione]
DC50 (Ikaros): > 10000 nM | Dmax (Ikaros): 9% | DC50 (Helios; [1]): 25 nM | Dmax (Helios; [1]): 84%

O=C1CCC(N2Cc3cc(-c4cc(CNCc5ccccc5)ccn4)ccc3C2=O)C(=O)N1 (centres unmarked) [Example 2, 3-(5-(4-((benzylamino)methyl)pyridin-2-yl)-1-oxoisoindolin-2-yl)piperidine-2,6-dione]
DC50 (Ikaros): > 10000 nM | Dmax (Ikaros): 16% | DC50 (Helios; [1]): 11 nM | Dmax (Helios; [1]): 92%

CCCN(C)Cc1ccnc(-c2ccc3c(c2)CN(C2CCC(=O)NC2=O)C3=O)c1 (centres unmarked) [Example 3, 3-(5-(4-((methyl(propyl)amino)methyl)pyridin-2-yl)-1-oxoisoindolin-2-yl)piperidine-2,6-dione]
DC50 (Ikaros): > 10000 nM | Dmax (Ikaros): 3% | DC50 (Helios; [1]): 38 nM | Dmax (Helios; [1]): 87%

CCN(C)Cc1ccnc(-c2ccc3c(c2)CN(C2CCC(=O)NC2=O)C3=O)c1 (centres unmarked) [Example 4, 3-(5-(4-((ethyl(methyl)amino)methyl)pyridin-2-yl)-1-oxoisoindolin-2-yl)piperidine-2,6-dione]
DC50 (Ikaros): > 10000 nM | Dmax (Ikaros): 8% | DC50 (Helios; [1]): 96 nM | Dmax (Helios; [1]): 84%

CCN(C)Cc1ccnc(-c2ccc3c(c2)CN(C2CCC(=O)NC2=O)C3=O)c1 (centres unmarked) [Example 5]
DC50 (Ikaros): > 10000 nM | Ikaros Dmax (Ikaros): 5% | DC50 (Helios; [1]): 44 nM | Helios Dmax (Helios; [1]): 90%

CCN(C)Cc1ccnc(-c2ccc3c(c2)CN(C2CCC(=O)NC2=O)C3=O)c1 (centres unmarked) [Example 6]
DC50 (Ikaros): > 10000 nM | Ikaros Dmax (Ikaros): 6% | DC50 (Helios; [1]): 28 nM | Helios Dmax (Helios; [1]): 86%

COCCN(C)Cc1ccnc(-c2ccc3c(c2)CN(C2CCC(=O)NC2=O)C3=O)c1 (centres unmarked) [Example 7, 3-(5-(4-(((2-methoxyethyl)(methyl)amino)methyl)pyridin-2-yl)-1-oxoisoindolin-2-yl)piperidine-2,6-dione]
DC50 (Ikaros): > 10000 nM | Dmax (Ikaros): 20% | DC50 (Helios; [1]): 138 nM | Dmax (Helios; [1]): 85%

O=C1CCC(N2Cc3cc(-c4cc(CN5CCCC5)ccn4)ccc3C2=O)C(=O)N1 (centres unmarked) [Example 8, 3-(1-oxo-5-(4-(pyrrolidin-1-ylmethyl)pyridin-2-yl)isoindolin-2-yl)piperidine-2,6-dione]
DC50 (Ikaros): > 10000 nM | Dmax (Ikaros): 18% | DC50 (Helios; [1]): 26 nM | Dmax (Helios; [1]): 85%

CCCCN(C)Cc1ccnc(-c2ccc3c(c2)CN(C2CCC(=O)NC2=O)C3=O)c1 (centres unmarked) [Example 9, 3-(5-(4-((butyl(methyl)amino)methyl)pyridin-2-yl)-1-oxoisoindolin-2-yl)piperidine-2,6-dione]
DC50 (Ikaros): > 10000 nM | Dmax (Ikaros): 4% | DC50 (Helios; [1]): 167 nM | Dmax (Helios; [1]): 87%

CCCN(Cc1ccnc(-c2ccc3c(c2)CN(C2CCC(=O)NC2=O)C3=O)c1)CC1CC1 (centres unmarked) [Example 10, 3-(5-(4-(((cyclopropylmethyl)(propyl)amino)methyl)pyridin-2-yl)-1-oxoisoindolin-2-yl)piperidine-2,6-dione]
DC50 (Ikaros): > 10000 nM | Dmax (Ikaros): 9% | DC50 (Helios; [1]): 183 nM | Dmax (Helios; [1]): 67%

O=C1CCC(N2Cc3cc(-c4cc(CN5CCC(n6c(=O)[nH]c7ccccc76)CC5)ccn4)ccc3C2=O)C(=O)N1 (centres unmarked) [Example 11, 3-(1-oxo-5-(4-((4-(2-oxo-2,3-dihydro-1H-benzo[d]imidazol-1-yl)piperidin-1-yl)methyl)pyridin-2-yl)isoindolin-2-yl)piperidine-2,6-dione]
DC50 (Ikaros): > 10000 nM | Dmax (Ikaros): 7% | DC50 (Helios; [1]): 573 nM | Dmax (Helios): 59%

O=C1CCC(N2Cc3cc(-c4cc(CN5CCN(Cc6ccc7c(c6)OCO7)CC5)ccn4)ccc3C2=O)C(=O)N1 (centres unmarked) [Example 12, 3-(5-(4-((4-(benzo[d][1,3]dioxol-5-ylmethyl)piperazin-1-yl)methyl)pyridin-2-yl)-1-oxoisoindolin-2-yl)piperidine-2,6-dione]
DC50 (Ikaros): > 10000 nM | Dmax (Ikaros): 16% | DC50 (Helios; [1]): > 10000 nM | Dmax (Helios; [1]): 37%

CCN(CC)C(=O)C1CCCN(Cc2ccnc(-c3ccc4c(c3)CN(C3CCC(=O)NC3=O)C4=O)c2)C1 (centres unmarked) [Example 13, 1-((2-(2-(2,6-dioxopiperidin-3-yl)-1-oxoisoindolin-5-yl)pyridin-4-yl)methyl)-N,N-diethylpiperidine-3-carboxamide]
DC50 (Ikaros): > 10000 nM | Dmax (Ikaros): 8% | DC50 (Helios; [1]): 200 nM | Dmax (Helios; [1]): 67%

CC1CCN(Cc2ccnc(-c3ccc4c(c3)CN(C3CCC(=O)NC3=O)C4=O)c2)CC1 (centres unmarked) [Example 14, 3-(5-(4-((4-methylpiperidin-1-yl)methyl)pyridin-2-yl)-1-oxoisoindolin-2-yl)piperidine-2,6-dione]
DC50 (Ikaros): > 10000 nM | Dmax (Ikaros): 16% | DC50 (Helios; [1]): 36 nM | Dmax (Helios; [1]): 80%

CN(CCc1ccccn1)Cc1ccnc(-c2ccc3c(c2)CN(C2CCC(=O)NC2=O)C3=O)c1 (centres unmarked) [Example 16, 3-(5-(4-((methyl(2-(pyridin-2-yl)ethyl)amino)methyl)pyridin-2-yl)-1-oxoisoindolin-2-yl) piperidine-2,6-dione]
DC50 (Ikaros): > 10000 nM | Dmax (Ikaros): 12% | DC50 (Helios; [1]): 788 nM | Dmax (Helios; [1]): 63%

O=C1CCC(N2Cc3cc(-c4cc(CN5CCC(N6CCCCC6)CC5)ccn4)ccc3C2=O)C(=O)N1 (centres unmarked) [Example 17, 3-(5-(4-([1,4′-bipiperidin]-1′-ylmethyl)pyridin-2-yl)-1-oxoisoindolin-2-yl)piperidine-2,6-dione]
DC50 (Ikaros): > 10000 nM | Dmax (Ikaros): 11% | DC50 (Helios; [1]): > 10000 nM | Dmax (Helios; [1]): 16%

CC(C)N(Cc1ccccc1)Cc1ccnc(-c2ccc3c(c2)CN(C2CCC(=O)NC2=O)C3=O)c1 (centres unmarked) [Example 19, 3-(5-(4-((benzyl(isopropyl)amino)methyl)pyridin-2-yl)-1-oxoisoindolin-2-yl)piperidine-2,6-dione]
DC50 (Ikaros): > 10000 nM | Dmax (Ikaros): 50% | DC50 (Helios; [1]): 154 nM | Dmax (Helios; [1]): 82%
